Data: ChEMBL document CHEMBL1126850, “Examination of the D2/5-HT2 affinity ratios of resolved 5,6,7,8,9,10-hexahydro-7,10-iminocyclohept[b]indoles: an enantioselective approach toward the design of potential atypical antipsychotics” (J Med Chem, 1993)

The compounds below were run against Serotonin 2 (5-HT2) receptor (Rattus norvegicus, UniProt P30994+P08909+P14842) (assay: In vitro binding affinity towards 5-hydroxytryptamine 2 receptor in rat striatal membranes by [3H]ketanserin displacement.).
Format: cell membranes, Striatum, Membrane

| Compound | Ki |
| --- | --- |
| O=C(CCCCN1C2CCC1c1c([nH]c3ccc(F)cc13)C2)c1ccc(F)cc1 (stereo in doubt; (S,R)-9) | 1.87 nM |
| O=C(CCCN1C2CCC1c1c([nH]c3ccc(F)cc13)C2)c1ccc(F)cc1 (stereo in doubt; (S,R) 8) | 0.8 nM |
| O=C(CCCCN1C2CCC1c1c([nH]c3ccc(F)cc13)C2)c1ccc(F)cc1 (mixture of isomers) | 109 nM |
| O=C(CCCN1C2CCC1c1c([nH]c3ccc(F)cc13)C2)c1ccc(F)cc1 (racemic) | 1.96 nM |
| O=C(CCCCN1C2CCC1c1c([nH]c3ccc(F)cc13)C2)c1ccc(F)cc1 (racemic) | 2.98 nM |
| O=C(CCCN1C2CCC1c1c([nH]c3ccc(F)cc13)C2)c1ccc(F)cc1 (mixture of isomers) | 2.56 nM |
